Data on five compounds can be found in US20210403420A1, “BENZOATE COMPOUND” (SCOHIA PHARMA, INC., priority 2018, published 2021).

Assay [1] has as its target T1, Human recombinant enteropeptidase (Homo sapiens, UniProt P98073).
T1 construct: purchased ITSI-Biosciences LLC #REN-260
The assay is described as follows: Human enteropeptidase inhibitory activity. The format is biochemical. The settings on record: 1 μM test compound; fluorescence intensity at 2 hours after start of reaction; read-out: Inhibition rate at 1 μM. Here is the method:
Test Example 1: Human Enteropeptidase Inhibitory Activity
Human recombinant enteropeptidase (#REN-260, ITSI-Biosciences LLC) was diluted with an assay buffer (50 mM Tricine, pH 8.0, 0.01 (w/v) %, Tween 20, 10 mM CaCl2)) to prepare a 24 mU/mL enzyme solution. Subsequently, 5FAM-Abu-Gly-Asp-Asp-Asp-Lys-Ile-Val-Gly-Gly-Lys(CPQ2)-Lys-Lys-NH2 (CPC Scientific Inc.) was diluted with the assay buffer to prepare a 2.1 μM substrate solution. A test compound is dissolved in DMSO into a 10 mM solution, and the solution was diluted with the assay buffer to give a compound solution. To a 384-well black plate (#784076, Greiner Bio-One), 5 μL of the compound solution and 5 μL of the substrate solution were added and mixed, and 5 μL of the enzyme solution was then added to the mixture, followed by mixing to start the reaction. The fluorescence intensity was measured with a fluorescence plate reader EnVision (The Perkin-Elmer Corp.) at an excitation wavelength of 485 nm and a fluorescence wavelength of 535 nm. The same reaction as above was performed without the addition of the test compound (test compound non-addition group). Furthermore, the same reaction as above was performed without the addition of the test compound and the enzyme (control group). The inhibition rate was calculated using the fluorescence intensity at 2 hours after the start of the reaction by the following expression:
Inhibition rate (%)=(1−((fluorescence intensity of test compound addition group)−(fluorescence intensity of control group))/((fluorescence intensity of test compound non-addition group)−(fluorescence intensity of control group)))×100

In assay [2] the test system is High fat diet-fed mice. The assay is described as follows: Fecal protein concentration-increasing test using high fat diet-fed mouse. The settings on record: Mus musculus, po, 24 h, feces of first day of administration, vehicle group = 100, read-out: Fecal protein concentration-increasing rate; for response vs control in vivo at 30 mg/kg: 30 mg/kg oral. The format is in vivo. From the text:
Test Example 2: Fecal Protein Concentration-Increasing Test Using High Fat Diet-Fed Mouse
High fat diet-fed mice (D12451 diet, male, 10- to 50-week old) were orally administered with a 0.5% methyl cellulose suspension containing a test compound (compound administration group, five mice per group) or a 0.5% methyl cellulose suspension (compound non-administration group (vehicle group), five mice per group), and whole feces were collected on the first day of administration. Dried feces were dissolved in 0.5 N NaOH, followed by centrifugation at 12,000 rpm. The protein concentration in the supernatant was then quantitatively measured (Lowry method), and the amount of protein contained in 1 g of feces was calculated as the fecal protein concentration (mg/g feces). The fecal protein concentration-increasing rate was calculated by the following expression.
Fecal protein concentration-increasing rate (%)=Fecal protein concentration of compound administration group/Fecal protein concentration of vehicle group×100

The test system of assay [3] is Diet-induced obesity (DIO) mice. The assay is described as follows: Anti-obesity effect test using DIO mouse. The format is in vivo. The following applies: for Body weight (g) At start of administration: average at start of administration; for Body weight (g) After 7-day administration: average; for Fecal protein concentration-increasing rate (%): feces of eighth day, vehicle = 100. The procedure:
Test Example 3: Anti-Obesity Effect Test Using DIO Mouse
Diet-induced obesity (DIO) mice (D12451 diet, male, 26-week old) were orally administered with a 0.5% methyl cellulose suspension containing a test compound (30 mg/kg) (compound administration group, five mice per group) or a 0.5% methyl cellulose suspension (compound non-administration group (vehicle), five mice per group) once a day for seven days, and whole feces were collected on the eighth day of administration. Dried feces were dissolved in 0.5 N NaOH, followed by centrifugation at 12,000 rpm. The protein concentration in the supernatant was then quantitatively measured (Lowry method), and the amount of protein contained in 1 g of feces was calculated as the fecal protein concentration (mg/g feces). The fecal protein concentration-increasing rate was calculated by the following expression.
Fecal protein concentration-increasing rate (%)=Fecal protein concentration of compound administration group/Fecal protein concentration of vehicle group X 100
The fecal protein concentration-increasing rate and the averages of the body weights at the start of administration and after administration for seven days are shown in Table 6.
Also, DIO mice (D12451 diet, male, 59-week old) were orally administered with a 0.5% methyl cellulose suspension containing a test compound (20 mg/kg) (compound administration group, five mice per group) or a 0.5% methyl cellulose suspension (compound non-administration group (vehicle), five mice per group) once a day for seven days, and whole feces were collected on the eighth day of administration. The fecal protein concentration (mg/g feces) was calculated by the method described above. The fecal protein concentration-increasing rate and the averages of the body weights at the start of administration and after administration for seven days are shown in Table 7.

Where [4] appears, read: DIO mice 26-week old, 30 mg/kg group.
Setting [5] is: DIO mice 26-week old, 30 mg/kg oral once a day for seven days.
Setting [6] is: DIO mice 59-week old, 20 mg/kg group.
Where [7] appears, read: DIO mice 59-week old, 20 mg/kg oral once a day for seven days.

Where a name gives a salt, the structure may show the parent alone.

T1 sequence (P98073 whole entry): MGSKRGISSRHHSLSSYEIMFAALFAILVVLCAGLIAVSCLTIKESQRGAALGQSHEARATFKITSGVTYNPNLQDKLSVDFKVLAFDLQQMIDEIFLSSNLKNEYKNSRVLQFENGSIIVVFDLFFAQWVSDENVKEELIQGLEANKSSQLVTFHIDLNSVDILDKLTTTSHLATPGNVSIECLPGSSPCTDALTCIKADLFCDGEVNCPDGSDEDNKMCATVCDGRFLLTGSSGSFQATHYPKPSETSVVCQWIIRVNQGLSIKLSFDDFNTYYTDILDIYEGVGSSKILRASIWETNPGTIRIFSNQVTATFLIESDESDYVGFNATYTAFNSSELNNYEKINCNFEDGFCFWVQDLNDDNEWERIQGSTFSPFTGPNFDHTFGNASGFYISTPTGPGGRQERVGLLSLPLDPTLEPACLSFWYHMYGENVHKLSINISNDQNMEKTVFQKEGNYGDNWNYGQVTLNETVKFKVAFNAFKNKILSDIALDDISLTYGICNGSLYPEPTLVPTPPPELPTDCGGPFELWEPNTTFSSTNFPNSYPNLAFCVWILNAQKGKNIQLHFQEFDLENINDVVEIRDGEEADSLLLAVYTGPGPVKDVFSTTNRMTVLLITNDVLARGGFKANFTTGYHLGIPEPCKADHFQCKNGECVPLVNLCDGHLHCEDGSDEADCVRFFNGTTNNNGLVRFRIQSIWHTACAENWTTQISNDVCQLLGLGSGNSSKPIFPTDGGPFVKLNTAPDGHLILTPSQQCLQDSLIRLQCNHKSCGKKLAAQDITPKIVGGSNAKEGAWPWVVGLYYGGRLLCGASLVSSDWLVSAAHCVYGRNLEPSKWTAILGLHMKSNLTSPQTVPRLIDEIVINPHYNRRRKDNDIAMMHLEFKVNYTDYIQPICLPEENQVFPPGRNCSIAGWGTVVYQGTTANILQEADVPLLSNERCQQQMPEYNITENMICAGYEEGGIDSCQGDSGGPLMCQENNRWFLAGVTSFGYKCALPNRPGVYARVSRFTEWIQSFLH

By inhibition is commonly meant the percentage by which the read-out fell short of the control. With `N=C(N)Nc1ccc(C(=O)Oc2ccc(CCC(=O)N[C@@H](CC(=O)O)C(=O)O)c(OCCOCCOCCOc3cc(OC(=O)c4ccc(NC(=N)N)cc4)ccc3CCC(=O)N[C@@H](CC(=O)O)C(=O)O)c2)cc1` [Example 12, (2S)-2-[3-[2-[2-[2-[2-[2-[3-[[(1S)-1,2-Dicarboxyethyl]amino]-3-oxopropyl]-5-(4-guanidinobenzoyl)oxyphenoxy]ethoxy]ethoxy]ethoxy]-4-(4-guanidinobenzoyl)oxyphenyl]propanoylamino]butanedioic acid dihydrochloride], the inhibition at 1 µM in assay [1] is 100%. Besides, the response vs control in vivo at 30 mg/kg in assay [2] came to 197%. In assay [3] (setting [4]), the “Body weight (g) At start of administration” value (“Body weight (g) At start” for short) worked out at 45.4 g. In assay [3] (setting [5]), the “Body weight (g) After 7-day administration” value came out at 44.7 g and the “Fecal protein concentration-increasing rate (%)” value turned out to be 280%.
For `Cl.Cl.N=C(N)Nc1ccc(C(=O)Oc2cc(OCCOCCOc3cc(OC(=O)c4ccc(NC(=N)N)cc4)cc(C(=O)N[C@H](CC(=O)O)C(=O)O)c3)cc(C(=O)N[C@H](CC(=O)O)C(=O)O)c2)cc1` [Example 15, (2R)-2-[[3-[2-[2-[3-[[(1R)-1,2-Dicarboxyethyl]carbamoyl]-5-(4-guanidinobenzoyl)oxyphenoxy]ethoxy]ethoxy]-5-(4-guanidinobenzoyl)oxybenzoyl]amino]butanedioic acid dihydrochloride], in assay [1], the inhibition at 1 µM was 100%. Further, the response vs control in vivo at 30 mg/kg in assay [2] came to 212%. Also, the “Body weight (g) At start” value in assay [3] (setting [4]) stood at 46.0 g; in assay [3] (setting [6]), 56.6 g. For the same compound, the entries for the “Body weight (g) After 7-day administration” value in assay [3] (setting [5]) and in assay [3] (setting [7]) were 43.4 g and 54.0 g, respectively. The “Fecal protein concentration-increasing rate (%)” value amounted to 250% in assay [3] (setting [5]) and 227% in assay [3] (setting [7]).
Regarding `N=C(N)Nc1ccc(C(=O)Oc2cc(OCCOc3cc(OC(=O)c4ccc(NC(=N)N)cc4)cc(C(=O)N[C@H](CC(=O)O)C(=O)O)c3)cc(C(=O)N[C@H](CC(=O)O)C(=O)O)c2)cc1` [Example 16, (2R)-2-[[3-[2-[3-[[(1R)-1,2-Dicarboxyethyl]carbamoyl]-5-(4-Guanidinobenzoyl)oxyphenoxy]ethoxy]-5-(4-guanidinobenzoyl)oxybenzoyl]amino]butanedioic acid dihydrochloride], in assay [1], the inhibition at 1 µM worked out at 100%. Also, the response vs control in vivo at 30 mg/kg in assay [2] was 245%. Moreover, the “Body weight (g) At start” value in assay [3] (setting [4]) is given as 45.7 g. Also, in assay [3] (setting [5]), the “Body weight (g) After 7-day administration” value was 44.7 g and the “Fecal protein concentration-increasing rate (%)” value is 271%.
`N=C(N)Nc1ccc(C(=O)Oc2cc(OCCOCCOc3cc(OC(=O)c4ccc(NC(=N)N)cc4)cc(C(=O)NCCS(=O)(=O)O)c3)cc(C(=O)NCCS(=O)(=O)O)c2)cc1` [Example 20, 2-[[3-(4-Guanidinobenzoyl)oxy-5-[2-[2-[3-(4-guanidinobenzoyl)oxy-5-(2-sulfoethylcarbamoyl)phenoxy]ethoxy]ethoxy]benzoyl]amino]ethanesulfonic acid ditrifluoroacetate]: in assay [1], the inhibition at 1 µM stood at 99%. For the same compound, the response vs control in vivo at 10 mg/kg in assay [2] (10 mg/kg oral) amounted to 143%.
In the case of `N=C(N)Nc1ccc(C(=O)Oc2ccc(C(=O)N[C@H](CC(=O)O)C(=O)O)c(OCCOCCOc3cc(OC(=O)c4ccc(NC(=N)N)cc4)ccc3C(=O)N[C@H](CC(=O)O)C(=O)O)c2)cc1` [Example 21, (2R)-2-[[2-[2-[2-[2-[[(1R)-1,2-Dicarboxyethyl]carbamoyl]-5-(4-guanidinobenzoyl)oxyphenoxy]ethoxy]ethoxy]-4-(4-guanidinobenzoyl)oxybenzoyl]amino]butanedioic acid dihydrochloride], the inhibition at 1 µM in assay [1] was 100%. Besides, the response vs control in vivo at 30 mg/kg in assay [2] turned out to be 203%. Besides, the “Body weight (g) At start” value in assay [3] (setting [6]) was 56.7 g. In assay [3] (setting [7]), the “Body weight (g) After 7-day administration” value stood at 53.6 g and the “Fecal protein concentration-increasing rate (%)” value is 248%.
